Results: patent US20200181095A1, “SELECTIVE MATRIX METALLOPROTEINASE-13 INHIBITORS” (FLORIDA ATLANTIC UNIVERSITY BOARD OF TRUSTEES, priority 2017, published 2020)
Where “and” joins values, the source holds several entries; their conditions need not be identical. Identical values can stand only once. Like-named read-outs stand apart in the source and are kept apart here. Values belong to the molecule of their own block, whether it stands above or below them.

Key:
Format in all cases: biochemical
[1] = molecular target: T1, MMP-13 (Homo sapiens, UniProt P45452); experiment: MMP-13 IC50 enzyme assay with fTHP-15 substrate; details: for IC50: fTHP substrate
T1 construct: purchased R&D Systems 511-MM
Experimental: Inhibitor kinetics: Inhibition experiments were conducted as described previously.^3 Briefly, fTHP-15, MMP-13, and inhibitor working solutions were prepared in EAB.
The enzyme was allowed to incubate with the test compounds for 30 min at 25° C. The assays were initiated by addition of 5 μL of fTHP-15 or Knight substrate and immediately placed in the microplate reader to record fluorescence.
To determine IC50 values of each compound, the relative fluorescence units (RFU) from wells containing MMP-13, fTHP-15, and inhibitors were plotted vs. no-enzyme and untreated controls.

[2] = molecular target: T1, MMP-13; experiment: MMP-13 inhibition constant (Ki) determination, fTHP-15; details: fTHP-15 substrate, 4 nM MMP-13, mixed inhibition model
Experimental: Rates of hydrolysis were obtained from plots of fluorescence versus time using data points from only the linear portion of the hydrolysis curve.
KM values were determined by nonlinear regression analysis using the one-site hyperbolic binding model^4 and additionally evaluated by linear analysis. All Ki values were determined by nonlinear regression (hyperbolic equation) analysis using the mixed inhibition model, which allows for simultaneous determination of the mechanism of inhibition, The mechanism of inhibition was determined using the “α” parameter derived from a mixed-model inhibition by GraphPad Prism. The mechanism of inhibition was additionally confirmed by Lineweaver-Burke plots.

[3] = molecular target: T2, MMP-8 (Homo sapiens, UniProt P22894); experiment: Selectivity assay MMP-8 (fTHP-15); details: 200 nM
T2 construct: purchased R&D Systems
Experimental: (§1) All enzymes were purchased from R&D Systems and activated according to manufacturer's instructions. Upon activation, each enzyme was diluted in EAB to […] and stored at −80° C. until further use. […]

[4] = molecular target: T3, MMP-2 (Homo sapiens, UniProt P08253); experiment: Selectivity assay MMP-2 (fTHP-15); details: 200 nM
T3 construct: purchased R&D Systems
Experimental: as §1

[5] = molecular target: ACE (Homo sapiens, UniProt P12821); experiment: Protease selectivity profiling; set-up: inhibition: dose or concentration left out as unconfirmed
[6] = molecular target: MMP-7 (Homo sapiens, UniProt P09237); experiment: Protease selectivity profiling; set-up: inhibition: dose or concentration left out as unconfirmed
[7] = molecular target: Neprilysin (Homo sapiens, UniProt P08473); experiment: Protease selectivity profiling; set-up: inhibition: dose or concentration left out as unconfirmed
[8] = molecular target: IDE (Homo sapiens, UniProt P14735); experiment: Protease selectivity profiling; set-up: inhibition: dose or concentration left out as unconfirmed
[9] = molecular target: T4, Factor-XA (Homo sapiens, UniProt P00742); experiment: Protease selectivity profiling; set-up: inhibition: dose or concentration left out as unconfirmed
T4 construct: Factor-XA

[10] = molecular target: ADAM10 (Homo sapiens, UniProt O14672); experiment: Protease selectivity profiling; set-up: inhibition: dose or concentration left out as unconfirmed
[11] = molecular target: Caspase-6 (Homo sapiens, UniProt P55212); experiment: Protease selectivity profiling; set-up: inhibition: dose or concentration left out as unconfirmed
[12] = molecular target: Caspase-2 (Homo sapiens, UniProt P42575); experiment: Protease selectivity profiling; set-up: inhibition: dose or concentration left out as unconfirmed
[13] = molecular target: Furin (Homo sapiens, UniProt P09958); experiment: Protease selectivity profiling; set-up: inhibition: dose or concentration left out as unconfirmed
[14] = molecular target: Cathepsin-S (Homo sapiens, UniProt P25774); experiment: Protease selectivity profiling; set-up: inhibition: dose or concentration left out as unconfirmed
[15] = molecular target: uPA (Homo sapiens, UniProt P00749); experiment: Protease selectivity profiling; set-up: inhibition: dose or concentration left out as unconfirmed
[16] = molecular target: Caspase-7 (Homo sapiens, UniProt P55210); experiment: Protease selectivity profiling; set-up: inhibition: dose or concentration left out as unconfirmed
[17] = molecular target: Cathepsin-K (Homo sapiens, UniProt P43235); experiment: Protease selectivity profiling; set-up: inhibition: dose or concentration left out as unconfirmed
[18] = molecular target: MMP-3 (Homo sapiens, UniProt P08254); experiment: Protease selectivity profiling; details: single stranded peptide substrate; inhibitor (text 1 μM); duplicates
[19] = molecular target: Caspase-3 (Homo sapiens, UniProt P42574); experiment: Protease selectivity profiling; set-up: inhibition: dose or concentration left out as unconfirmed
[20] = molecular target: BACE-1 (Homo sapiens, UniProt P56817); experiment: Protease selectivity profiling; set-up: inhibition: dose or concentration left out as unconfirmed
[21] = molecular target: Caspase-5 (Homo sapiens, UniProt P51878); experiment: Protease selectivity profiling; set-up: inhibition: dose or concentration left out as unconfirmed
[22] = molecular target: Caspase-1 (Homo sapiens, UniProt P29466); experiment: Protease selectivity profiling; set-up: inhibition: dose or concentration left out as unconfirmed
[23] = molecular target: Thrombin (Homo sapiens, UniProt P00734); experiment: Protease selectivity profiling; details: read-out: % Inhibition Thrombin
[24] = molecular target: Cathepsin-L (Homo sapiens, UniProt P07711); experiment: Protease selectivity profiling; set-up: inhibition: dose or concentration left out as unconfirmed
[25] = molecular target: T5, MMP-12 (Homo sapiens, UniProt P39900); experiment: Protease selectivity profiling; details: single stranded peptide substrate; inhibitor 1 mM (footnote; text 1 μM); duplicates
[26] = molecular target: ACE2 (Homo sapiens, UniProt Q9BYF1); experiment: Protease selectivity profiling; set-up: inhibition: dose or concentration left out as unconfirmed
[27] = molecular target: Cathepsin-D (Homo sapiens, UniProt P07339); experiment: Protease selectivity profiling; set-up: inhibition: dose or concentration left out as unconfirmed
[28] = molecular target: T5, MMP-12; experiment: Additional specificity assay, 10-point dilution IC50
[29] = molecular target: TACE (Homo sapiens, UniProt P78536); experiment: Protease selectivity profiling; set-up: inhibition: dose or concentration left out as unconfirmed
[30] = single stranded peptide substrate, inhibitor 1 µM, duplicates

T5 sequence (P39900 106-470, species assumed): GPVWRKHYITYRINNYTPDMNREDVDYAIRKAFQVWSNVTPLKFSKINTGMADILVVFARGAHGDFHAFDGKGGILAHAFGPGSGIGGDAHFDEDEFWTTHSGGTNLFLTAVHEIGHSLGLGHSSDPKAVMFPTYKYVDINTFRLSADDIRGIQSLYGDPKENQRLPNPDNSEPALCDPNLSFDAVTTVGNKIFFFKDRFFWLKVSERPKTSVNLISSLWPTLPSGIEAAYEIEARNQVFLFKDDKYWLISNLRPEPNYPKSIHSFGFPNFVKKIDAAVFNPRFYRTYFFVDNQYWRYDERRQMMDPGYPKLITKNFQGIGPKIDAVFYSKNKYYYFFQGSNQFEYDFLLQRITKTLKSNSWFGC
Sequence of TACE (P78536 215-824): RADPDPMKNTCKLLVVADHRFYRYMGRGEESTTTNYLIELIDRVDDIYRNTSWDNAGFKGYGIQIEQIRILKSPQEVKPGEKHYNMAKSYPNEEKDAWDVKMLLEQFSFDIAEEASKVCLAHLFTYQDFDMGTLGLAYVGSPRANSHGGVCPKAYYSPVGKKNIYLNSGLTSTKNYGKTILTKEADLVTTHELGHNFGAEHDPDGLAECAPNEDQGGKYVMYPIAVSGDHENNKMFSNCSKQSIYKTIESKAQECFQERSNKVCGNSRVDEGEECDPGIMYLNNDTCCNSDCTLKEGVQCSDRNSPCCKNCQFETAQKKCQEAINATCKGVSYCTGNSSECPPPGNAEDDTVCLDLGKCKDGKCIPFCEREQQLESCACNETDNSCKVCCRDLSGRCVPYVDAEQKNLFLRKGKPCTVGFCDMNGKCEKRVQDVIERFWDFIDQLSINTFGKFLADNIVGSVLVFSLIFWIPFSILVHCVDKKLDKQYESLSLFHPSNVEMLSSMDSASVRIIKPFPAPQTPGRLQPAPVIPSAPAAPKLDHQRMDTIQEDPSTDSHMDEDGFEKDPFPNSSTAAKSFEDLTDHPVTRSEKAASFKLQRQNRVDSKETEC
Sequence of ACE2 (Q9BYF1 18-805, species assumed): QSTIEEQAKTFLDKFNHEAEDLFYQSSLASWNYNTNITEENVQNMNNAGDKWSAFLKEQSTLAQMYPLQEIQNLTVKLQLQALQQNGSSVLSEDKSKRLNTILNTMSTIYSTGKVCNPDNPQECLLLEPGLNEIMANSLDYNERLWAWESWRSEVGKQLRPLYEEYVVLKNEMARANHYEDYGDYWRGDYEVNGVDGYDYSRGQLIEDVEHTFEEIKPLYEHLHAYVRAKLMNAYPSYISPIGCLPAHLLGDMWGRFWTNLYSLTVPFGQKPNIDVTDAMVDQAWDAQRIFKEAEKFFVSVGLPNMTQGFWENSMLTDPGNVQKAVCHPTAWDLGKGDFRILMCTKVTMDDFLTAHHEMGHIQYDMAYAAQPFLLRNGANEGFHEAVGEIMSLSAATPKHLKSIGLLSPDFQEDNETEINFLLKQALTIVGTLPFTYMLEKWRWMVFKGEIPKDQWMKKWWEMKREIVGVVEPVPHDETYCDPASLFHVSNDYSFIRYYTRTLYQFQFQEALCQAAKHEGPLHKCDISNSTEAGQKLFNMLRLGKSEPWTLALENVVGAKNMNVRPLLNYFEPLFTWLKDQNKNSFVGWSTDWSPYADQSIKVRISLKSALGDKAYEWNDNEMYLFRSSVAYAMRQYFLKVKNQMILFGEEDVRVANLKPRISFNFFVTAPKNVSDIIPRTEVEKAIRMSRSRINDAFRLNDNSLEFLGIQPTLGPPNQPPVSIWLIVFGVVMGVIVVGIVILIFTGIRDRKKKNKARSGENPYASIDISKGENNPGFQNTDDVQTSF
Sequence of Caspase-7 (P55210 24-198 limits assumed, species assumed): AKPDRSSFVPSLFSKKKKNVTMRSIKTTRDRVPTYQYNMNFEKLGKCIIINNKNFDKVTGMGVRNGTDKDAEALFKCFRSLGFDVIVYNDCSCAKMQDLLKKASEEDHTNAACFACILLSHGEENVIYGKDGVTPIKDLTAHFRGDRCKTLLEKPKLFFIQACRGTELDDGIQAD
Sequence of Caspase-7 (P55210 207-303 limits assumed, species assumed): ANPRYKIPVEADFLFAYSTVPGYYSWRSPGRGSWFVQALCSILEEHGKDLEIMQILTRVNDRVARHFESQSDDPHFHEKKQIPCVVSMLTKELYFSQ
Sequence of Caspase-6 (P55212 24-179 limits assumed, species assumed): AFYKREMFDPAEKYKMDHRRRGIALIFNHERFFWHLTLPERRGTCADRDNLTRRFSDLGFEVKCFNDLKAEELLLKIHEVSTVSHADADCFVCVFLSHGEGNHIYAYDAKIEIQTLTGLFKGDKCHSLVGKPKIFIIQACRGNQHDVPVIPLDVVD
Sequence of Caspase-6 (P55212 194-293 limits assumed, species assumed): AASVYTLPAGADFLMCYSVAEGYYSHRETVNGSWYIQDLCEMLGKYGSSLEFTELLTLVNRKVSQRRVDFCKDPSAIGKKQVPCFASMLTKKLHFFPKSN
Sequence of Cathepsin-S (P25774 115-331, species assumed): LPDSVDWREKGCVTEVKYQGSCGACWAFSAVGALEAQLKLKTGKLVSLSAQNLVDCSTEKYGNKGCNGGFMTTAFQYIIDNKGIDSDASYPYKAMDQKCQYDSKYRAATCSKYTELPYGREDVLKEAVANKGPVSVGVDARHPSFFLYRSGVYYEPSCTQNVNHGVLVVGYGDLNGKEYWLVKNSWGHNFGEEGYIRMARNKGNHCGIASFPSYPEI
T4 sequence (P00742 235-488 limits assumed): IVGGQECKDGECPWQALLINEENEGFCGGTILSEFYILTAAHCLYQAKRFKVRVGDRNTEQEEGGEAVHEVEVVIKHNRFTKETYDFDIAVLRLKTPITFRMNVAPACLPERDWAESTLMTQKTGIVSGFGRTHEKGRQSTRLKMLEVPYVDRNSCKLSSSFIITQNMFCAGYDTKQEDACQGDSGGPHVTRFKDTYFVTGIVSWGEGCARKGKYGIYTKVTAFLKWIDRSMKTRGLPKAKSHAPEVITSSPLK
T4 sequence (P00742 41-179 partner limits assumed): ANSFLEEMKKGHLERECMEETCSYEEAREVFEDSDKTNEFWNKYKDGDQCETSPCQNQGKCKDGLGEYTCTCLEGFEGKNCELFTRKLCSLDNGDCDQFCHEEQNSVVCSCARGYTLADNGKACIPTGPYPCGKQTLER
Sequence of ACE (P12821 30-1306, species assumed): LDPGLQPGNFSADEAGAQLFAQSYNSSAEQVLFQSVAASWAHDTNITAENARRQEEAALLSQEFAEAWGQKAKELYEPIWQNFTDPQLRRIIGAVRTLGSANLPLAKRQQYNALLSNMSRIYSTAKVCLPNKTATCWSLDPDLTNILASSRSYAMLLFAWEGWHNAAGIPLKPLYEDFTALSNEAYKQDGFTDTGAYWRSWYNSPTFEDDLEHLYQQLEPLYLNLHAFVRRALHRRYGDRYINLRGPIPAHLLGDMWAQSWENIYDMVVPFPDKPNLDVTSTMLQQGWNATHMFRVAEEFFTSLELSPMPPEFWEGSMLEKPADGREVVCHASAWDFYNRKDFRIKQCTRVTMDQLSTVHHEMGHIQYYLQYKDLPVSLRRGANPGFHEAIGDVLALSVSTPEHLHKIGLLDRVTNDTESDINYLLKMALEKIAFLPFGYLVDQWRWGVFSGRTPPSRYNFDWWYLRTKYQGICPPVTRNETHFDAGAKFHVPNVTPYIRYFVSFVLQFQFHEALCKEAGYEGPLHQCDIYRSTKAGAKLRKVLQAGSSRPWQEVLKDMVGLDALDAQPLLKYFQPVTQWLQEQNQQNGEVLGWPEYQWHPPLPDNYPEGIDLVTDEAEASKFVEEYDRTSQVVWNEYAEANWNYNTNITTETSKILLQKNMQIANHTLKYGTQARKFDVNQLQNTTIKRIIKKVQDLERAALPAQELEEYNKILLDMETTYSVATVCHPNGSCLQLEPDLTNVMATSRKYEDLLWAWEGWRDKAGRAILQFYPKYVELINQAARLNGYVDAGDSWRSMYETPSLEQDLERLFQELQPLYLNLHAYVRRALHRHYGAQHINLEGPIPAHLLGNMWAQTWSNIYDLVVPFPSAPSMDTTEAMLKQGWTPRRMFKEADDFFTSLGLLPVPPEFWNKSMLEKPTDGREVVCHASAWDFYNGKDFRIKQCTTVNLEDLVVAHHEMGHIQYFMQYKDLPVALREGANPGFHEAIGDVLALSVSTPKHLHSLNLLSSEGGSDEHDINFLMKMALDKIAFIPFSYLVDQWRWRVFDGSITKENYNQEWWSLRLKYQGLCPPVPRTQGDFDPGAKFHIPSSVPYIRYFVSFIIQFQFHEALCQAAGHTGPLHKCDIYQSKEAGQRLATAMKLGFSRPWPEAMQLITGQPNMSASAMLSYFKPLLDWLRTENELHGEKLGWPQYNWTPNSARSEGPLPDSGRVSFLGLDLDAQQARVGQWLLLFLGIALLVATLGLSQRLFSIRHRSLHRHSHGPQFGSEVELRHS
Sequence of Cathepsin-K (P43235 115-329, species assumed): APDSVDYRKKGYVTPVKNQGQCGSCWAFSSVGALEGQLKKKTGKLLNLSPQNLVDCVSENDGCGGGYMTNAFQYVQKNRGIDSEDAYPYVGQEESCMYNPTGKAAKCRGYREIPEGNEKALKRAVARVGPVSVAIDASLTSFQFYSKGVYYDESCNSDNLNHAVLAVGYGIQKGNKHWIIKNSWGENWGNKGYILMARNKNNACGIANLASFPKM
Sequence of MMP-7 (P09237 95-267, species assumed): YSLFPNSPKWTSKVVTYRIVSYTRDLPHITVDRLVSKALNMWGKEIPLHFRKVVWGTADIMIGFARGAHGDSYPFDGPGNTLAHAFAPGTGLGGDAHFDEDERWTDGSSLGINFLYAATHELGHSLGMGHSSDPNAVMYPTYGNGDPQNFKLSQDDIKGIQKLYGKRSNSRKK
Sequence of Caspase-2 (P42575 170-325 limits assumed, species assumed): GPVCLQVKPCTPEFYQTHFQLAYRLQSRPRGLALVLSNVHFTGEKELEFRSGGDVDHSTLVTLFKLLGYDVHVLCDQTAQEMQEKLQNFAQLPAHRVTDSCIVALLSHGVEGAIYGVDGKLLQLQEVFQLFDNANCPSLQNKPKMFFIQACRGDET
Sequence of Caspase-2 (P42575 348-452 limits assumed, species assumed): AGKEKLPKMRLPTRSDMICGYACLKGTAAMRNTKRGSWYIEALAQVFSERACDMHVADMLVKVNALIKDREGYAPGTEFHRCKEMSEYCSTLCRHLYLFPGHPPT

- loss of inhibition activity vs. MMP-13 compared to the (S)-enantiomer [1]: ca. 12 fold
- IC50 [1]: 72 nM
Compound: CNC(=O)[C@H](NC(=O)c1ccc(-c2ccc(CSc3nc4c(c(=O)[nH]3)CCC4)cc2)o1)C(C)C [(R)-17a]

- IC50 [1]: 2.2 nM
- Ki [2]: 2.3 nM
Compound: CC(C)[C@H](NS(=O)(=O)c1ccc(-c2ccc(CSc3nc4c(c(=O)[nH]3)CCC4)cc2)cc1)C(=O)O [(S)-10a]

- inhibition of MMP-8 in single dose assay [3]: moderately active inhibitor
- improvement of MMP-13 inhibition potency compared to 5 [1]: ~1,000 fold
- IC50 [1]: 5.9 nM
- inhibition of MMP-2 in single dose assay [4]: moderately active inhibitor
Compound: CNC(=O)[C@@H](NC(=O)c1ccc(-c2ccc(CSc3nc4c(c(=O)[nH]3)CCC4)cc2)o1)C(C)C [(S)-17a]

- IC50 [1]: 1.6 nM
- Ki [2]: 1.8 nM
Compound: O=C(O)CNS(=O)(=O)c1ccc(-c2ccc(CSc3nc4c(c(=O)[nH]3)CCC4)cc2)cc1 [Compound 10b]

- inhibition at 1 µM [5, 30]: 7%
- inhibition at 1 µM [6, 30]: 7%
- inhibition at 1 µM [7, 30]: 3%
- inhibition at 1 µM [8, 30]: 0%
- inhibition at 1 µM [9, 30]: 3%
- inhibition at 1 µM [10, 30]: 0%
- inhibition at 1 µM [11, 30]: 0%
- inhibition at 1 µM [12, 30]: 0%
- inhibition at 1 µM [13, 30]: 0%
- inhibition at 1 µM [14, 30]: 12%
- inhibition at 1 µM [15, 30]: 3%
- inhibition at 1 µM [16, 30]: 1%
- inhibition at 1 µM [17, 30]: 0%
- inhibition [18]: 13%
- inhibition at 1 µM [19, 30]: 0%
- inhibition at 1 µM [20, 30]: 1%
- inhibition at 1 µM [21, 30]: 0%
- inhibition at 1 µM [22, 30]: 1%
- inhibition ([23]; single stranded peptide substrate, inhibitor (text 1 μM), duplicates): -3%
- inhibition at 1 µM [24, 30]: 9%
- inhibition at 1000 µM [25]: 40%
- inhibition at 1 µM [26, 30]: 1%
- inhibition at 1 µM [27, 30]: 3%
- less active as inhibitor of MMP-12 than as MMP-13 inhibitor [28]: 140 fold
- IC50 ([28]; fTHP substrates (footnote), 10-point dilution): 470 nM and 467 nM
- inhibition at 1 µM [29, 30]: 4%
Compound: NCCNS(=O)(=O)c1ccc(-c2ccc(CSc3nc4c(c(=O)[nH]3)CCC4)cc2)cc1 [Compound 10d]

- IC50 [1]: 2.4 nM
- Ki [2]: 1.6 nM
Compound: CC(C)[C@@H](NS(=O)(=O)c1ccc(-c2ccc(CSc3nc4c(c(=O)[nH]3)CCC4)cc2)cc1)C(=O)O [Compound (R)-10a]

Compound: CNC(=O)[C@@H](NC(=O)c1ccc(-c2ccc(CSc3nc4c(c(=O)[nH]3)CCC4)c(F)c2)o1)C(C)C [Compound (S)-17b]
- inhibition ([5]; read-out: % Inhibition ACE): 0%
- inhibition ([6]; read-out: % Inhibition MMP-7): 4%
- inhibition ([7]; read-out: % Inhibition Neprilysin): -6%
- inhibition ([8]; read-out: % Inhibition IDE): 0%
- inhibition ([9]; read-out: % Inhibition Factor-XA): 0%
- inhibition ([10]; read-out: % Inhibition ADAM10): 0%
- inhibition ([11]; read-out: % Inhibition Caspase-6): 0%
- inhibition ([12]; read-out: % Inhibition Caspase-2): 0%
- inhibition ([13]; read-out: % Inhibition Furin): 0%
- inhibition ([14]; read-out: % Inhibition Cathepsin-S): 2%
- inhibition ([15]; read-out: % Inhibition uPA): 1%
- inhibition ([16]; read-out: % Inhibition Caspase-7): 8%
- inhibition ([17]; read-out: % Inhibition Cathepsin-K): 2%
- inhibition ([19]; read-out: % Inhibition Caspase-3): 0%
- inhibition ([20]; read-out: % Inhibition BACE-1): 0%
- inhibition ([21]; read-out: % Inhibition Caspase-5): 0%
- inhibition ([22]; read-out: % Inhibition Caspase-1): 0%
- inhibition [23]: -8%
- inhibition ([24]; read-out: % Inhibition Cathepsin-L): 7%
- inhibition ([26]; read-out: % Inhibition ACE2): 0%
- inhibition ([27]; read-out: % Inhibition Cathepsin-D): 0%
- inhibition ([29]; read-out: % Inhibition TACE): -3%
